Our source for the Kd values is patent US20230279023A1, “N/O-Linked Degrons and Degronimers for Protein Degradation” (C4 Therapeutics, Inc., priority 2019, published 2023).

The experiment has as its target CRBN-DDB1 (Homo sapiens (Human), UniProt Q96SW2). The experiment can be described thus: Fluorescence polarization (FP) assay for compound ligand binding to CRBN-DDB1. Particulars: FP displacement of (−)-Thalidomide-Alexa Fluor or Pomalidomide-fluorescein probe; 400 nM CRBN-DDB1, 5 nM probe; Compounds of the Present Invention. The method, then:
Measuring compound ligand binding to CRBN-DDB1 was carried out using an established sensitive and quantitative in vitro fluorescence polarization (FP) based binding assay. […] Compounds were dispensed from serially diluted DMSO stock into black 384-well compatible fluorescence polarization plates using an Echo acoustic dispenser. Compound binding to CRBN-DDB1 was measured by displacement of either a (−)-Thalidomide-Alexa Fluor® or Pomalidomide-fluorescein conjugated probe dye. […] Matching control wells excluding CRBN-DDB1 were used to correct for background fluorescence. Plates were read on an Envision plate reader with appropriate FP filter sets. The corrected S (perpendicular) and P (parallel) values were used to calculate fluorescence polarization (FP) with the following equation: […]

Chain of CRBN-DDB1 (Q96SW2 whole entry): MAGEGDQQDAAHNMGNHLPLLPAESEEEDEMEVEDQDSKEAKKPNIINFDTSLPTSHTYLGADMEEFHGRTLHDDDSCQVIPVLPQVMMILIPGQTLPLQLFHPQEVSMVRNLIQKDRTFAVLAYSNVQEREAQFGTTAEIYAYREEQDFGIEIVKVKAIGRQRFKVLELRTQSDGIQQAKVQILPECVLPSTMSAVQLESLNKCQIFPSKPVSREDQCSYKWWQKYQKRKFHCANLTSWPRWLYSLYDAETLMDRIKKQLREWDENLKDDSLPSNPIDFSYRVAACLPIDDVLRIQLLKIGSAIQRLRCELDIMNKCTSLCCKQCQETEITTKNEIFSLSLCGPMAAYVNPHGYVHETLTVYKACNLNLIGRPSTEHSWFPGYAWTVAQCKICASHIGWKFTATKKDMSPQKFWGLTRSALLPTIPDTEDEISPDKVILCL
Chain of CRBN-DDB1 (Q16531 whole entry partner): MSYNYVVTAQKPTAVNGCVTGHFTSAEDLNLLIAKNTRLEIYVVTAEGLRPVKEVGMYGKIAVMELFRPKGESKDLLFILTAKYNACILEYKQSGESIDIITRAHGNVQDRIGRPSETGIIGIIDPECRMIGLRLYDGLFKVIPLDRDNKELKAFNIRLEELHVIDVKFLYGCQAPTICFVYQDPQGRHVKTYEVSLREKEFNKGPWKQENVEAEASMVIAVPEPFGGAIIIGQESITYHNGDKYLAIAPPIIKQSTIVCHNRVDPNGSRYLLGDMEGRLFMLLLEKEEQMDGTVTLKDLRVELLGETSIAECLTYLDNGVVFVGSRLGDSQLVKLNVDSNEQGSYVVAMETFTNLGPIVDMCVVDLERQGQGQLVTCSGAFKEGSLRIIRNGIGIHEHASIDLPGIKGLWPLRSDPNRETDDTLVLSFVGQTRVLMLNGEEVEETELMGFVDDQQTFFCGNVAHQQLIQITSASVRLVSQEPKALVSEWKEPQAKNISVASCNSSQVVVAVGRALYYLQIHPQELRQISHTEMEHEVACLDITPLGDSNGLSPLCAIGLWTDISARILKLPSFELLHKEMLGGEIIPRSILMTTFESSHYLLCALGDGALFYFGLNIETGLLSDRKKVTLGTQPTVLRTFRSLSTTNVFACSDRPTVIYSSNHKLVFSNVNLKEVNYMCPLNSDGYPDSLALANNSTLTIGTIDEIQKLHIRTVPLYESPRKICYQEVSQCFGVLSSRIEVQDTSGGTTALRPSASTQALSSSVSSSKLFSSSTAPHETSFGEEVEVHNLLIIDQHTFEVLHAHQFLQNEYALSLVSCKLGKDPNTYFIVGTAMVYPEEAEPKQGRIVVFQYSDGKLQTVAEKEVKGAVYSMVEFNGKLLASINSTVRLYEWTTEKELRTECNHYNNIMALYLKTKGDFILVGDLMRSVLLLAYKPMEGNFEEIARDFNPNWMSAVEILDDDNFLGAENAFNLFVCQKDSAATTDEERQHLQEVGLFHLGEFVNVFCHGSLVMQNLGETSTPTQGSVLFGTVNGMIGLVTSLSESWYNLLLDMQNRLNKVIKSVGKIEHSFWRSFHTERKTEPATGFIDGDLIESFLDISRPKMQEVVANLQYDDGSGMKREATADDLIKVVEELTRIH

Take `CN(c1ccccc1)C1CCC(=O)NC1=O` (stereo not drawn) [Compound 1]: the Kd was less than 10 µM.
The result for `O=C1CCC(Nc2cccc(-c3ccccc3)c2)C(=O)N1` (stereo not drawn) [Compound 3] reads less than 10 µM; that for `COc1cc(Cl)c(C)cc1NC1CCC(=O)NC1=O` (stereo not drawn) [Compound 4], less than 10 µM; that for `O=C1CCC(Nc2ccccc2-c2ccccc2)C(=O)N1` (stereo not drawn) [Compound 5], less than 10 µM.
In the case of `O=C1CCC(Nc2ccc(-c3ccccc3)cc2)C(=O)N1` (stereo not drawn) [Compound 6] it was less than 10 µM; in that of `COc1ccc(NC2CCC(=O)NC2=O)cc1F` (stereo not drawn) [Compound 7], less than 10 µM; in that of `O=C1CCC(Nc2cccc(F)c2)C(=O)N1` (stereo not drawn) [Compound 9], less than 10 µM.
In the case of `COc1cc(F)ccc1NC1CCC(=O)NC1=O` (stereo not drawn) [Compound 10], the Kd is less than 10 µM.
On to `COc1ccc(NC2CCC(=O)NC2=O)c(F)c1` (stereo not drawn) [Compound 11], for which the Kd was less than 10 µM.
In turn, `Cc1ccc(NC2CCC(=O)NC2=O)cc1C#N` (stereo not drawn) [Compound 12] had a Kd of less than 10 µM.
The result for `COc1cccc(NC2CCC(=O)NC2=O)c1` (stereo not drawn) [Compound 13] reads less than 10 µM; that for `COc1ccccc1NC1CCC(=O)NC1=O` (stereo not drawn) [Compound 15], less than 10 µM; that for `COc1cccc(N(C)C2CCC(=O)NC2=O)c1` (stereo not drawn) [Compound 16], less than 10 µM.
`Cc1cccc(N(C)C2CCC(=O)NC2=O)c1` (stereo not drawn) [Compound 18]: the Kd is less than 10 µM.
The result for `O=C1CCC(Nc2cc(Cl)ccc2O)C(=O)N1` (stereo not drawn) [Compound 19] reads less than 10 µM.
With `COc1ccc(N(C)C2CCC(=O)NC2=O)cc1` (stereo not drawn) [Compound 20], the Kd is less than 10 µM.
The result for `O=C1CCC(Nc2cccc(-c3ccccn3)c2)C(=O)N1` (stereo not drawn) [Compound 22] reads less than 10 µM.
For `O=C1CCC(Nc2ccccc2Oc2ccccc2)C(=O)N1` (stereo not drawn) [Compound 23], the Kd is less than 10 µM.
In turn, `O=C1CCC(Nc2ccc(C(F)(F)F)cc2)C(=O)N1` (stereo not drawn) [Compound 26] registered a Kd of less than 10 µM.
The result for `O=C1CCC(Nc2ccc(CN3CCOCC3)cc2)C(=O)N1` (stereo not drawn) [Compound 27] reads less than 10 µM.
As to `O=C1CCC(Nc2ccc(Oc3ccccc3)cc2)C(=O)N1` (stereo not drawn) [Compound 28], the Kd was less than 10 µM.
In the case of `COc1cc(NC2CCC(=O)NC2=O)cc(C(F)(F)F)c1` (stereo not drawn) [Compound 29] it was less than 10 µM; in that of `O=C1CCC(Nc2cccc(Oc3ccccc3)c2)C(=O)N1` (stereo not drawn) [Compound 30], less than 10 µM; in that of `CCCOc1ccc(NC2CCC(=O)NC2=O)cc1` (stereo not drawn) [Compound 31], less than 10 µM.
`CN(c1ccc(Br)cc1)C1CCC(=O)NC1=O` (stereo not drawn) [Compound 32] showed a Kd of less than 10 µM.
In the case of `CN(c1cccc(F)c1)C1CCC(=O)NC1=O` (stereo not drawn) [Compound 33], the Kd is less than 10 µM.
In the case of `CN(c1cccc(Cl)c1)C1CCC(=O)NC1=O` (stereo not drawn) [Compound 34] it was less than 10 µM; in that of `O=C1CCC(Nc2cccc(C(F)(F)F)c2)C(=O)N1` (stereo not drawn) [Compound 35], less than 10 µM.
In the case of `COc1ccc(NC2CCC(=O)NC2=O)c(C)c1` (stereo not drawn) [Compound 36] it was less than 10 µM.
In the case of `O=C1CCC(Nc2ccc(Cl)cc2)C(=O)N1` (stereo not drawn) [Compound 37] it was less than 10 µM.
`Cc1ccc(NC2CCC(=O)NC2=O)cc1` (stereo not drawn) [Compound 38] showed a Kd of less than 10 µM.
For the compound `O=C1CCC(Nc2cccc(-c3cnco3)c2)C(=O)N1` (stereo not drawn) [Compound 39], the Kd is less than 10 µM.
`O=C1CCC(Nc2cccc(Cl)c2)C(=O)N1` (stereo not drawn) [Compound 40] yielded a Kd of less than 10 µM.
In the case of `CC(C)(C)c1ccccc1NC1CCC(=O)NC1=O` (stereo not drawn) [Compound 41] it was less than 10 µM; in that of `COc1ccc(C)cc1NC1CCC(=O)NC1=O` (stereo not drawn) [Compound 42], less than 10 µM.
The result for `O=C1CCC(Nc2ccc(F)cc2Cl)C(=O)N1` (stereo not drawn) [Compound 43] reads less than 10 µM; that for `COc1ccc(Cl)c(NC2CCC(=O)NC2=O)c1` (stereo not drawn) [Compound 44], less than 10 µM; that for `O=C1CCC(Nc2cc(F)ccc2Cl)C(=O)N1` (stereo not drawn) [Compound 45], less than 10 µM.
`COc1ccc(NC2CCC(=O)NC2=O)cc1Cl` (stereo not drawn) [Compound 46] gave a Kd of less than 10 µM.
